# Earlier results as cited in EP4088834A1, “INORGANIC COATED SAND” (Kao Corporation, priority 2020, dated 2021).
# Conditions: 25°C
compound,measurement,value
[O]=[Ca] [calcium oxide],solubility in water,1190 µg/mL
